This passage reports stability on storage results from patent publication US8138343B2, “Crystalline polymorph of 7-ethyl-10-hydroxycamptothecin” (ScinoPharm Taiwan Ltd., priority 2007, dated 2012).

The data set is described as follows: Storage stability of crystalline SN38. Format: physicochemical. Particulars: 25° C. and 70% relative humidity for one year.

On to `CCc1c2c(nc3ccc(O)cc13)-c1cc3c(c(=O)n1C2)COC(=O)C3(O)CC` (stereo not shown) [crystalline SN38, 7-ethyl-10-hydroxycamptothecin], for which the stability on storage entry is on record as “stable”.
